In US4358441A, “Nicotinic derivatives of glucosamine and related pharmaceutical compositions” (Laboratorio Guidotti & C. S.p.A., priority 1980, dated 1982):

Legend:
[1] = system: plasma levels of triglycerides; test: Effect of oral administration on plasma levels of triglycerides in the empty rat; type: in vivo, rat (COBS CD (SD) BR male); details: for Percent variations of plasma triglycerides with respect to the controls / Percent variations of plasma triglycerides with respect to the control: empty rat; for Time within which the effect on triglycerides disappears: rat; for Percent variations of plasma triglycerides with respect to the control: Table 5, 100 mg/kg oral referred to nicotinic acid
[2] = system: plasma levels of free glycerol; test: Effect of oral administration on plasma levels of free glycerol in the empty rat; type: in vivo, rat (COBS CD (SD) BR male); details: for Percent variations of plasma free glycerol with respect to the controls: empty rat; for Activity on free glycerol: 30 mg/kg oral; for Activity on free glycerol / Time within which the effect on free glycerol disappears: rat; for Time within which the effect on free glycerol disappears: 100 mg/kg oral
[3] = system: plasma levels of FFA; test: Effect of oral administration on plasma levels of FFA in the empty rat; details: for Percent variations of plasma FFA with respect to the controls / Percent variations of plasma FFA with respect to the control: empty rat; for Time within which the effect on FFA disappears: 100 mg/kg oral, rat; for Percent variations of plasma FFA with respect to the control: Table 5, 100 mg/kg oral referred to nicotinic acid
[4] = system: plasma levels of cholesterol; test: Effect of oral administration on plasma levels of cholesterol in the empty rat; type: in vivo, rat (COBS CD (SD) BR male); details: for Percent variations of plasma cholesterol with respect to the controls: 100 mg/kg oral referred to nicotinic acid; for Percent variations of plasma cholesterol with respect to the controls / Percent variations of plasma cholesterol with respect to the control: empty rat; for Lowering of cholesterolemy: 100 mg/kg oral, rat; for Percent variations of plasma cholesterol with respect to the control: Table 5, 100 mg/kg oral referred to nicotinic acid
[5] = Solubility; type: physicochemical
[6] = 30 mg/kg oral referred to nicotinic acid, 1 h
[7] = 30 mg/kg oral referred to nicotinic acid, 2 h
[8] = 30 mg/kg oral referred to nicotinic acid, 4 h
[9] = 30 mg/kg oral referred to nicotinic acid, 6 h
[10] = 100 mg/kg oral referred to nicotinic acid, 2 h
[11] = 100 mg/kg oral referred to nicotinic acid, 4 h
[12] = 100 mg/kg oral referred to nicotinic acid, 6 h
[13] = 100 mg/kg oral referred to nicotinic acid, 8 h
[14] = 100 mg/kg oral referred to nicotinic acid, 10 h
[15] = 100 mg/kg oral referred to nicotinic acid, 16 h
[16] = 100 mg/kg oral referred to nicotinic acid, 24 h

## O=C(OCC(COC(=O)c1cccnc1)(COC(=O)c1cccnc1)COC(=O)c1cccnc1)c1cccnc1 [NICERITROLE, pentaerithritol-tetranicotinate]
[1]; [6]
  Percent variations of plasma triglycerides with respect to the controls: -45%
[1]; [7]
  Percent variations of plasma triglycerides with respect to the controls: -27%
[1]; [8]
  Percent variations of plasma triglycerides with respect to the controls: +13%
[1]; [9]
  Percent variations of plasma triglycerides with respect to the controls: -6%
[1]; 30 mg/kg oral
  Time within which the effect on triglycerides disappears: ≤ 2 h
[1]; [10]
  Percent variations of plasma triglycerides with respect to the controls: -41%
[1]; [11]
  Percent variations of plasma triglycerides with respect to the controls: -56%
[1]; [12]
  Percent variations of plasma triglycerides with respect to the controls: -63%
[1]; [13]
  Percent variations of plasma triglycerides with respect to the controls: -30%
[1]; [14]
  Percent variations of plasma triglycerides with respect to the controls: +9%
[1]; [15]
  Percent variations of plasma triglycerides with respect to the controls: -3%
[1]; [16]
  Percent variations of plasma triglycerides with respect to the controls: +5%
[1]; 100 mg/kg oral
  Time within which the effect on triglycerides disappears: within the eighth hour
[2]; [6]
  Percent variations of plasma free glycerol with respect to the controls: -77%
[2]; [7]
  Percent variations of plasma free glycerol with respect to the controls: -9%
[2]; [8]
  Percent variations of plasma free glycerol with respect to the controls: -4%
[2]; [9]
  Percent variations of plasma free glycerol with respect to the controls: +11%
[2]
  Activity on free glycerol: active only after 1 hour
  Time within which the effect on free glycerol disappears: within the fourth hour
[2]; [10]
  Percent variations of plasma free glycerol with respect to the controls: -61%
[2]; [11]
  Percent variations of plasma free glycerol with respect to the controls: -34%
[2]; [12]
  Percent variations of plasma free glycerol with respect to the controls: +17%
[2]; [13]
  Percent variations of plasma free glycerol with respect to the controls: +11%
[2]; [14]
  Percent variations of plasma free glycerol with respect to the controls: +4%
[2]; [15]
  Percent variations of plasma free glycerol with respect to the controls: +13%
[2]; [16]
  Percent variations of plasma free glycerol with respect to the controls: +3%
[3]; [6]
  Percent variations of plasma FFA with respect to the controls: -87%
[3]; [7]
  Percent variations of plasma FFA with respect to the controls: -18%
[3]; [8]
  Percent variations of plasma FFA with respect to the controls: +9%
[3]; [9]
  Percent variations of plasma FFA with respect to the controls: +8%
[3]; [10]
  Percent variations of plasma FFA with respect to the controls: -70%
[3]; [11]
  Percent variations of plasma FFA with respect to the controls: -43%
[3]; [12]
  Percent variations of plasma FFA with respect to the controls: +27%
[3]; [13]
  Percent variations of plasma FFA with respect to the controls: +10%
[3]; [14]
  Percent variations of plasma FFA with respect to the controls: -2%
[3]; [15]
  Percent variations of plasma FFA with respect to the controls: +6%
[3]; [16]
  Percent variations of plasma FFA with respect to the controls: -8%
[3]
  Time within which the effect on FFA disappears: ≤ 6 h
[4]; 4 h
  Percent variations of plasma cholesterol with respect to the controls: -2%
[4]; 6 h
  Percent variations of plasma cholesterol with respect to the controls: -7%
[4]; 8 h
  Percent variations of plasma cholesterol with respect to the controls: 0%
[4]; 10 h
  Percent variations of plasma cholesterol with respect to the controls: -10%
[4]; 16 h
  Percent variations of plasma cholesterol with respect to the controls: -17%
[4]; 24 h
  Percent variations of plasma cholesterol with respect to the controls: -14%
[4]
  Lowering of cholesterolemy: never significant

## O=C(OC[C@H](OC(=O)c1cccnc1)[C@@H](OC(=O)c1cccnc1)[C@H](OC(=O)c1cccnc1)[C@@H](COC(=O)c1cccnc1)OC(=O)c1cccnc1)c1cccnc1 [SORBINICATE, D-glucitol hexanicotinate]
[1]; [6]
  Percent variations of plasma triglycerides with respect to the controls: -42%
[1]; [7]
  Percent variations of plasma triglycerides with respect to the controls: -16%
[1]; [8]
  Percent variations of plasma triglycerides with respect to the controls: +6%
[1]; [9]
  Percent variations of plasma triglycerides with respect to the controls: -3%
[1]; 30 mg/kg oral
  Time within which the effect on triglycerides disappears: ≤ 2 h
[1]; [10]
  Percent variations of plasma triglycerides with respect to the controls: -61%
[1]; [11]
  Percent variations of plasma triglycerides with respect to the controls: -46%
[1]; [12]
  Percent variations of plasma triglycerides with respect to the controls: -55%
[1]; [13]
  Percent variations of plasma triglycerides with respect to the controls: -5%
[1]; [14]
  Percent variations of plasma triglycerides with respect to the controls: +9%
[1]; [15]
  Percent variations of plasma triglycerides with respect to the controls: -3%
[1]; [16]
  Percent variations of plasma triglycerides with respect to the controls: -25%
[1]; 100 mg/kg oral
  Time within which the effect on triglycerides disappears: within the eighth hour
[2]; [6]
  Percent variations of plasma free glycerol with respect to the controls: -59%
[2]; [7]
  Percent variations of plasma free glycerol with respect to the controls: -27%
[2]; [8]
  Percent variations of plasma free glycerol with respect to the controls: +2%
[2]; [9]
  Percent variations of plasma free glycerol with respect to the controls: -7%
[2]
  Activity on free glycerol: active only after 1 hour
  Time within which the effect on free glycerol disappears: within the fourth hour
[2]; [10]
  Percent variations of plasma free glycerol with respect to the controls: -70%
[2]; [11]
  Percent variations of plasma free glycerol with respect to the controls: -3%
[2]; [12]
  Percent variations of plasma free glycerol with respect to the controls: +3%
[2]; [13]
  Percent variations of plasma free glycerol with respect to the controls: +20%
[2]; [14]
  Percent variations of plasma free glycerol with respect to the controls: +8%
[2]; [15]
  Percent variations of plasma free glycerol with respect to the controls: -1%
[2]; [16]
  Percent variations of plasma free glycerol with respect to the controls: -1%
[3]; [6]
  Percent variations of plasma FFA with respect to the controls: -56%
[3]; [7]
  Percent variations of plasma FFA with respect to the controls: -14%
[3]; [8]
  Percent variations of plasma FFA with respect to the controls: +13%
[3]; [9]
  Percent variations of plasma FFA with respect to the controls: -9%
[3]; [10]
  Percent variations of plasma FFA with respect to the controls: -72%
[3]; [11]
  Percent variations of plasma FFA with respect to the controls: -1%
[3]; [12]
  Percent variations of plasma FFA with respect to the controls: +6%
[3]; [13]
  Percent variations of plasma FFA with respect to the controls: +4%
[3]; [14]
  Percent variations of plasma FFA with respect to the controls: -5%
[3]; [15]
  Percent variations of plasma FFA with respect to the controls: +6%
[3]; [16]
  Percent variations of plasma FFA with respect to the controls: +2%
[3]
  Time within which the effect on FFA disappears: ≤ 4 h
[4]; 4 h
  Percent variations of plasma cholesterol with respect to the controls: -14%
[4]; 6 h
  Percent variations of plasma cholesterol with respect to the controls: -15%
[4]; 8 h
  Percent variations of plasma cholesterol with respect to the controls: -7%
[4]; 10 h
  Percent variations of plasma cholesterol with respect to the controls: -15%
[4]; 16 h
  Percent variations of plasma cholesterol with respect to the controls: -13%
[4]; 24 h
  Percent variations of plasma cholesterol with respect to the controls: -9%
[4]
  Lowering of cholesterolemy: at the tenth hour only

## N[C@H]1C(OC(=O)c2cccnc2)O[C@H](COC(=O)c2cccnc2)[C@@H](OC(=O)c2cccnc2)[C@@H]1OC(=O)c1cccnc1 (some centres unmarked) [glucosamine tetranicotinate, Glucosamine tetranicotinate]
[1]; 2 h
  Percent variations of plasma triglycerides with respect to the control: -54%
[1]; 4 h
  Percent variations of plasma triglycerides with respect to the control: -53%
[1]; 8 h
  Percent variations of plasma triglycerides with respect to the control: -82%
[3]; 2 h
  Percent variations of plasma FFA with respect to the control: -70%
[3]; 4 h
  Percent variations of plasma FFA with respect to the control: -48%
[3]; 8 h
  Percent variations of plasma FFA with respect to the control: -65%
[5]
  Solubility: soluble in the common organic solvents and in acid solutions
[4]; 4 h
  Percent variations of plasma cholesterol with respect to the control: -16%
[4]; 8 h
  Percent variations of plasma cholesterol with respect to the control: -26%
[4]; 24 h
  Percent variations of plasma cholesterol with respect to the control: -59%

## O=C(N[C@H]1[C@@H](OC(=O)c2cccnc2)O[C@H](COC(=O)c2cccnc2)[C@@H](OC(=O)c2cccnc2)[C@@H]1OC(=O)c1cccnc1)c1cccnc1 [α, α-N-nicotinoyl-glucosamine tetranicotinate]
[1]; 2 h
  Percent variations of plasma triglycerides with respect to the control: -56%
[1]; 4 h
  Percent variations of plasma triglycerides with respect to the control: -68%
[1]; 8 h
  Percent variations of plasma triglycerides with respect to the control: -47%
[3]; 2 h
  Percent variations of plasma FFA with respect to the control: -64%
[3]; 4 h
  Percent variations of plasma FFA with respect to the control: -13%
[3]; 8 h
  Percent variations of plasma FFA with respect to the control: -7%
[5]
  Solubility: soluble in the common non-polar organic solvents
[4]; 4 h
  Percent variations of plasma cholesterol with respect to the control: -4%
[4]; 8 h
  Percent variations of plasma cholesterol with respect to the control: -12%
[4]; 24 h
  Percent variations of plasma cholesterol with respect to the control: -44%
